Results as given in patent US10172961B2 (priority 2014, dated 2019).

Columns and labels:
[1] = rat, in vivo
in vivo = details: rat, inhaled or intranasal, 6 mg/kg

Compound	presence in the brain / CNS localization [1]	presence in the serum [1]	level at time molar at 8 h (in vivo)
CC[C@H](C)[C@H](NC(=O)[C@H](C)NC(=O)[C@H](CC(N)=O)NC(=O)CNC(=O)[C@H](CC(C)C)NC(=O)[C@H](CC(N)=O)NC(=O)[C@@H](NC(=O)CNC(=O)[C@@H](NC(=O)[C@H](CC(=O)O)NC(=O)[C@H](CC(C)C)NC(=O)[C@H](CCCNC(=N)N)NC(=O)[C@H](CCC(=O)O)NC(=O)[C@H](CC(C)C)NC(=O)[C@H](CO)NC(=O)[C@@H](NC(=O)[C@@H]1CCCN1C(=O)[C@@H]1CCCN1C(C)=O)[C@@H](C)CC)C(C)C)[C@@H](C)O)C(=O)N[C@@H](C)C(=O)N[C@@H](CCCCN)C(=O)N[C@@H](CC(C)C)C(=O)N[C@@H](CCC(=O)O)C(=O)N[C@@H](CC(=O)O)C(=O)N[C@@H](C)C(=O)N[C@@H](CCCCN)C(=O)N[C@@H](CCC(=O)O)C(=O)N[C@@H](CC(C)C)C(=O)N[C@@H](CC(C)C)C(=O)N[C@@H](CCC(=O)O)C(=O)N[C@@H](CO)C(=O)N[C@@H](CO)C(=O)N[C@@H](CC(=O)O)C(=O)N[C@@H](CCC(N)=O)C(=O)N[C@H](C(=O)N[C@@H](CC(C)C)C(=O)N[C@@H](CCCNC(=N)N)C(=O)NCC(=O)N[C@@H](CO)C(=O)NCC(=O)N[C@@H](CO)C(=O)NCC(=O)N[C@@H](CSC1=CC(=O)N(CCCC(=O)NCCOCCOCCOCCOCCC(=O)NCCN(CCNC(=O)CCOCCOCCOCCOCCNC(=O)CCCN2C(=O)C=C(SC[C@H](NC(=O)CNC(=O)[C@H](CO)NC(=O)CNC(=O)[C@H](CO)NC(=O)CNC(=O)[C@H](CCCNC(=N)N)NC(=O)[C@H](CC(C)C)NC(=O)[C@@H](NC(=O)[C@H](CCC(N)=O)NC(=O)[C@H](CC(=O)O)NC(=O)[C@H](CO)NC(=O)[C@H](CO)NC(=O)[C@H](CCC(=O)O)NC(=O)[C@H](CC(C)C)NC(=O)[C@H](CC(C)C)NC(=O)[C@H](CCC(=O)O)NC(=O)[C@H](CCCCN)NC(=O)[C@H](C)NC(=O)[C@H](CC(=O)O)NC(=O)[C@H](CCC(=O)O)NC(=O)[C@H](CC(C)C)NC(=O)[C@H](CCCCN)NC(=O)[C@H](C)NC(=O)[C@@H](NC(=O)[C@H](C)NC(=O)[C@H](CC(N)=O)NC(=O)CNC(=O)[C@H](CC(C)C)NC(=O)[C@H](CC(N)=O)NC(=O)[C@@H](NC(=O)CNC(=O)[C@@H](NC(=O)[C@H](CC(=O)O)NC(=O)[C@H](CC(C)C)NC(=O)[C@H](CCCNC(=N)N)NC(=O)[C@H](CCC(=O)O)NC(=O)[C@H](CC(C)C)NC(=O)[C@H](CO)NC(=O)[C@@H](NC(=O)[C@@H]3CCCN3C(=O)[C@@H]3CCCN3C(C)=O)[C@@H](C)CC)C(C)C)[C@@H](C)O)[C@@H](C)CC)[C@@H](C)CC)C(N)=O)C2=O)CCOc2c(C)c(C)c3c(c2C)CC[C@](C)(CCC[C@@H](C)CCC[C@@H](C)CCCC(C)C)O3)C1=O)C(N)=O)[C@@H](C)CC [HRC4-tocopherol]	no CNS localization	minimal presence in the serum	~2000 nM
CC[C@H](C)[C@H](NC(=O)[C@H](C)NC(=O)[C@H](CC(N)=O)NC(=O)CNC(=O)[C@H](CC(C)C)NC(=O)[C@H](CC(N)=O)NC(=O)[C@@H](NC(=O)CNC(=O)[C@@H](NC(=O)[C@H](CC(=O)O)NC(=O)[C@H](CC(C)C)NC(=O)[C@H](CCCNC(=N)N)NC(=O)[C@H](CCC(=O)O)NC(=O)[C@H](CC(C)C)NC(=O)[C@H](CO)NC(=O)[C@@H](NC(=O)[C@@H]1CCCN1C(=O)[C@@H]1CCCN1C(C)=O)[C@@H](C)CC)C(C)C)[C@@H](C)O)C(=O)N[C@@H](C)C(=O)N[C@@H](CCCCN)C(=O)N[C@@H](CC(C)C)C(=O)N[C@@H](CCC(=O)O)C(=O)N[C@@H](CC(=O)O)C(=O)N[C@@H](C)C(=O)N[C@@H](CCCCN)C(=O)N[C@@H](CCC(=O)O)C(=O)N[C@@H](CC(C)C)C(=O)N[C@@H](CC(C)C)C(=O)N[C@@H](CCC(=O)O)C(=O)N[C@@H](CO)C(=O)N[C@@H](CO)C(=O)N[C@@H](CC(=O)O)C(=O)N[C@@H](CCC(N)=O)C(=O)N[C@H](C(=O)N[C@@H](CC(C)C)C(=O)N[C@@H](CCCNC(=N)N)C(=O)NCC(=O)N[C@@H](CO)C(=O)NCC(=O)N[C@@H](CO)C(=O)NCC(=O)N[C@@H](CSC1=CC(=O)N(CCCC(=O)NCCOCCOCCOCCOCCC(=O)NCCN(CCNC(=O)CCOCCOCCOCCOCCNC(=O)CCCN2C(=O)C=C(SC[C@H](NC(=O)CNC(=O)[C@H](CO)NC(=O)CNC(=O)[C@H](CO)NC(=O)CNC(=O)[C@H](CCCNC(=N)N)NC(=O)[C@H](CC(C)C)NC(=O)[C@@H](NC(=O)[C@H](CCC(N)=O)NC(=O)[C@H](CC(=O)O)NC(=O)[C@H](CO)NC(=O)[C@H](CO)NC(=O)[C@H](CCC(=O)O)NC(=O)[C@H](CC(C)C)NC(=O)[C@H](CC(C)C)NC(=O)[C@H](CCC(=O)O)NC(=O)[C@H](CCCCN)NC(=O)[C@H](C)NC(=O)[C@H](CC(=O)O)NC(=O)[C@H](CCC(=O)O)NC(=O)[C@H](CC(C)C)NC(=O)[C@H](CCCCN)NC(=O)[C@H](C)NC(=O)[C@@H](NC(=O)[C@H](C)NC(=O)[C@H](CC(N)=O)NC(=O)CNC(=O)[C@H](CC(C)C)NC(=O)[C@H](CC(N)=O)NC(=O)[C@@H](NC(=O)CNC(=O)[C@@H](NC(=O)[C@H](CC(=O)O)NC(=O)[C@H](CC(C)C)NC(=O)[C@H](CCCNC(=N)N)NC(=O)[C@H](CCC(=O)O)NC(=O)[C@H](CC(C)C)NC(=O)[C@H](CO)NC(=O)[C@@H](NC(=O)[C@@H]3CCCN3C(=O)[C@@H]3CCCN3C(C)=O)[C@@H](C)CC)C(C)C)[C@@H](C)O)[C@@H](C)CC)[C@@H](C)CC)C(N)=O)C2=O)CCOC2CCC3(C)C(=CCC4C3CCC3(C)C(C(C)CCCC(C)C)CCC43)C2)C1=O)C(N)=O)[C@@H](C)CC (stereo partly drawn) [MV HRC4]	a small fraction of the administered peptides was present	a small fraction of the administered peptides was present	~400 nM
